Source: publication PMC5477230 (Nature chemical biology, 2016)
“Also recorded” adds a separate entry of the source. Read-outs that look alike come from different tables or passages of the source. * marks the point of attachment. Cbz = O=C(OCc1ccccc1)*; CH2F = FC*

Legend:
SCPEP1 = SCPEP1 (Homo sapiens, UniProt Q9HB40); assay: EnPlex serine hydrolase selectivity profiling; type: biochemical; settings: 10 μM; EnPlex and competitive ABPP
[1] = system: caspase-1 knockout RAW 264.7 cells; assay: Cell viability, caspase-1 knockout RAW 264.7; type: cell-based, mouse; settings: for cell killing: caspase-1 knockout RAW 264.7
GSDMD = GSDMD cleavage by immunoblotting; type: cell-based; settings: THP-1 cells, 24 h
wild-type mice = assay: Cytokine stimulation in wild-type mice; type: in vivo; settings: oral, Val-boroPro 100 μg/mouse, sitagliptin 1000 μg/mouse
[2] = system: Casp1−/− knockout C57BL/6NJ mice; assay: Cytokine stimulation in Casp1−/− knockout mice; type: in vivo; settings: 100 μg/mouse, 6 h
[3] = system: DPP9 knockout THP-1 cells; assay: LDH cytotoxicity assay, DPP9 knockout THP-1; type: cell-based
[4] = system: DPP8/9 double knockout THP-1 cells; assay: LDH cytotoxicity assay, DPP8/9 double knockout THP-1; type: cell-based
[5] = system: Caspase-1 knockout THP-1 cells; assay: LDH cytotoxicity assay, caspase-1 knockout THP-1; type: cell-based
ASC-knockout THP-1 cells = type: cell-based
[6] = system: GSDMD knockout THP-1 cells; assay: LDH cytotoxicity assay, GSDMD knockout THP-1; type: cell-based
DPP4 = settings: cited from earlier work
THP-1 macrophages [7] = settings: for LDH release: wild-type THP-1 cells; for blockade of Val-boroPro-induced pyroptosis: THP-1 macrophages, 50 μM, 30 min pre-treatment, 6 h
DPP7 = settings: cited from earlier work
J774 cells [8] = assay: LDH cytotoxicity assay, J774
U937 cells = assay: LDH cytotoxicity assay, U937
HL-60 cells = assay: LDH cytotoxicity assay, HL-60
[9] = system: primary mouse bone marrow derived macrophages (mBMDMs); assay: LDH cytotoxicity assay, mBMDMs
[10] = system: primary human peripheral blood mononuclear cells (hPBMCs); assay: LDH cytotoxicity assay, hPBMCs
RAW 264.7 cells = assay: LDH cytotoxicity assay, RAW 264.7; settings: for LDH release: RAW 264.7; for effect on cumulative Val-boroPro-induced LDH release: RAW 264.7, 24 hours; for blockade of Val-boroPro-induced pyroptosis: RAW 264.7 macrophages, 50 μM, 30 min pre-treatment, 6 h
THP-1 macrophages [11] = assay: IL-1β expression by immunoblotting; settings: 10 μM
control THP-1 cells = assay: CellTiter-Glo cell viability, control THP-1; type: cell-based; settings: read-out: IC50 cell viability (CellTiter-Glo)
[12] = system: DPP8/9 knockout THP-1 cells; assay: CellTiter-Glo cell viability, DPP8/9 knockout THP-1; type: cell-based; settings: read-out: IC50 cell viability (CellTiter-Glo); DPP8/9 KO1 THP-1, 48 h
[13] = system: CASP1 knockout THP-1 cells; assay: CellTiter-Glo cell viability, CASP1 knockout THP-1; type: cell-based; settings: CASP1 knockout THP-1, 48 h, compared to DMSO
HT-1080 cells = assay: CellTiter-Glo cell viability, HT-1080; type: cell-based; settings: HT-1080, 48 h
MCF7 cells = assay: CellTiter-Glo cell viability, MCF7; type: cell-based; settings: MCF7, 48 h
DPP8 = settings: read-out: IC50 DPP8; cited from earlier work
DPP9 = settings: read-out: IC50 DPP9; cited from earlier work
[14] = system: U937 cells and monocyte-derived macrophages; settings: 8 μM; cited from earlier work
J774 cells [15] = settings: cited from earlier work
rats = settings: cited from earlier work

Chain of SCPEP1 (Q9HB40 27-452, species assumed): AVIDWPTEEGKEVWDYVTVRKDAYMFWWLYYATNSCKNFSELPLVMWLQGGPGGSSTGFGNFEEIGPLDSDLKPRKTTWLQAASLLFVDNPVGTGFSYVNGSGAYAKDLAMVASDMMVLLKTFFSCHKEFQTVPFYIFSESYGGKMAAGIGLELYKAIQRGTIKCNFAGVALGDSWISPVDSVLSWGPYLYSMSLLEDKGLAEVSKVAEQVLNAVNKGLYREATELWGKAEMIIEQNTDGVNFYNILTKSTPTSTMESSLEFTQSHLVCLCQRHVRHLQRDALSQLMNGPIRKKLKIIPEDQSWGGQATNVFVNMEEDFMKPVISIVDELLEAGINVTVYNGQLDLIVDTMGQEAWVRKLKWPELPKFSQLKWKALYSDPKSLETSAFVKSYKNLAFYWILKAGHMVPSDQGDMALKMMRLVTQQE

Compound: CC(C)[C@H](N)C(=O)N1CCC[C@H]1B(O)O [Val-boroPro]
- inhibition of SCPEP1 (previously unknown target) (SCPEP1): inhibited
- cell killing [1]: resistant
- GSDMD cleavage (GSDMD): significant cleavage of GSDMD
- serum CXCL1/KC induction (wild-type mice): dramatically induces
- serum G-CSF induction (wild-type mice): dramatically induces
- serum CXCL1/KC increase [2]: no increase
- serum G-CSF increase [2]: no increase
- additional LDH release / cytotoxicity [3]: induce additional cytotoxicity
- additional LDH increase [4]: no additional LDH increase
- sensitivity of cells to compound (LDH) [5]: resistant
- cytotoxic response (LDH) (ASC-knockout THP-1 cells): responded equivalently
- onset of induced cell death [6]: significantly delayed
- LDH release (THP-1 macrophages [7]): induced similar LDH release
- inhibition of DPP7 (DPP7; relative to DPP4, DPP8, DPP9): more weakly inhibit
- LDH release (J774 cells [8]): released LDH
- LDH release (U937 cells): do not release LDH
- LDH release (HL-60 cells): released LDH
- LDH release [9]: released LDH
- LDH release [10]: released LDH
- LDH release (RAW 264.7 cells): released LDH; also recorded: induced similar LDH release
- increase of intracellular pro-IL-1β levels (THP-1 macrophages [11]): ~ 2 fold

Compound: 1G244
- IC50 (control THP-1 cells; control THP-1, 48 h): 2.7 µM
- IC50 [12]: 21.5 µM
- cell death (CellTiter-Glo) [13]: killed
- cell killing (CellTiter-Glo) (HT-1080 cells): kills
- cell killing (CellTiter-Glo) (MCF7 cells): kills
- cell killing [1]: kills
- caspase-1-independent cell death ([1]; mouse RAW 264.7 cells, 10 μM): small amounts of caspase-1-independent cell death
- GSDMD cleavage (GSDMD): significant cleavage of GSDMD
- additional LDH release / cytotoxicity ([3]; DPP9 knockout THP-1, Val-boroPro 2 μM, 1G244 10 μM, 24 h): induced additional LDH release
- additional LDH increase [4]: no additional LDH increase
- sensitivity of cells to compound (LDH) [5]: resistant
- inhibition of DPP4 (DPP4): does not inhibit
- LDH release (THP-1 macrophages [7]): induced similar LDH release
- IC50 (DPP8): 0.014 µM
- IC50 (DPP9): 0.053 µM
- inhibition of DPP7 (DPP7): does not inhibit
- form of cell death induced [14]: induced a form of cell death that appeared to be apoptosis
- cell death (J774 cells [15]): induces cell death
- toxic effects after injection (rats; 30 mg/kg): startle reflex, convulsions and cyanosis
- concentrations achieved in animals (rats): > 10 µM
- toxic effects after injection (rats; ≥60 mg/kg): immediate death
- LDH release (RAW 264.7 cells): induced similar LDH release

Compound: N#C[C@@H]1C[C@@H]2C[C@@H]2N1C(=O)[C@@H](N)C12CC3CC(CC(O)(C3)C1)C2 [saxagliptin]
- IC50 (control THP-1 cells; Homo sapiens, THP-1, 48 h): 2.5 to 18.7 µM

Compound: N#C[C@@H]1CCCN1C(=O)CNC12CC3CC(CC(O)(C3)C1)C2 [vildagliptin]
- IC50 (control THP-1 cells; Homo sapiens, THP-1, 48 h): 2.5 to 18.7 µM

Compound: Ac-YVAD-CMK
- effect on cumulative Val-boroPro-induced LDH release (THP-1 macrophages [7]; THP-1, over 24 hours): no impact
- blockade of Val-boroPro-induced pyroptosis (THP-1 macrophages [7]): completely blocked
- effect on cumulative Val-boroPro-induced LDH release (RAW 264.7 cells): no impact
- blockade of Val-boroPro-induced pyroptosis (RAW 264.7 cells): completely blocked

Compound: Cbz-Val-Ala-Asp-CH2F
- blockade of Val-boroPro-induced pyroptosis (THP-1 macrophages [7]): completely blocked
- effect on cumulative Val-boroPro-induced LDH release (RAW 264.7 cells): only partially reduced
- blockade of Val-boroPro-induced pyroptosis (RAW 264.7 cells): completely blocked
